Assays:
[1] = system: RSV A2; assay: RSV inhibition (cytopathic effect inhibition) using Viral ToxGlo assay in HEp-2 cells; format: cell-based; conditions: human respiratory syncytial virus, RSV A2, MOI 0.5, HEp-2 cells, 72 h p.i.
Method: Protocol for Screening Antiviral Compounds for RSV Inhibition and Cytotoxicity Using Viral ToxGlo Assay
HEp-2 cells were maintained in Eagle's minimum essential medium (EMEM) with Earle's BSS adjusted to contain 2 mM L-glutamine, 10% fetal bovine serum, 100 U/ml penicillin and 100 μg/ml streptomycin. For the purposes of the screening assay they were grown to 90% confluency, trypsinized and recovered. The trypsin was neutralised with cell culture media and cells were centrifuged at 150×g for 5 minutes before discarding the supernatant and resuspending cell pellet in assay media (EMEM with Earle's BSS adjusted to contain 2 mM L-glutamine, 2% fetal bovine serum and 100 U/ml penicillin and 100 μg/ml streptomycin). The cells were seeded into white clear-bottomed cell culture plates at a density of 1.5×10^4 cells/well in 50 μl and 4×10^3 cells/well in 25 μl for 96 well plates and 384 well plates respectively. For the media/background control column assay media only was added. Cell plates were placed in a humid chamber and incubated overnight at 37° C./5% CO2. After overnight incubation cells were checked for confluency and healthy appearance.
Test articles were made up at 10× test concentration in a maximum DMSO concentration of 10% (final assay concentration maximal 1% DMSO) and added to the cell plates in volumes of 10 μl for 96 well plates and 5 μl for 384 well plates. For cell control and virus control wells the test article solvent only was added. Virus or assay media for cytotoxicity test wells and media/cell control wells was added immediately after test articles at an MOI of 0.5, 40 or 20 μl for 96 and 384 well plates respectively. Virus suspension was prepared by thawing RSV A2 frozen stocks and diluting to the required concentration of plaque forming units in assay media on ice.
(§1) Cell plates were further incubated inside a humid chamber for 72 h p.i at 37° C./5% CO2. After the incubation period cells were observed under the microscope to check for characteristic cytopathic effect in virus control wells and healthy cells in the cell control wells. After plates were adjusted to room temperature 20/40 μl Viral ToxGlo (Promega) was added to each well of the 384/96 well cell plates. Plates were incubated at room temperature, protected from light on a plate rocker for 20 minutes before measuring the luminescence on a spectrophotometer (Biotek Synergy HTX).
RSV inhibition was calculated as percentage of cytopathic effect inhibition relative to the virus control and cytotoxicity as percentage of cell survival relative to cell control wells. This allowed EC50 values to be calculated for each test article where a virus inhibition or cytotoxic dose response was identified.

[2] = system: DENV-2 strain 16681; assay: DENV-2 inhibition (cytopathic effect inhibition) using Viral ToxGlo assay in A549 cells; format: cell-based, Dengue 2 virus; conditions: Dengue virus, DENV2, 120 h, compounds at 10 μM, MOI 0.5, 5 days p.i., read-out: % DENV-2 Inhibition Mean (n = 3)
Method: Protocol for Screening Antiviral Compounds for DENV-2 Inhibition and Cytotoxicity Using Viral ToxGlo Assay
A549 cells were maintained in Dulbecco's Modified Eagle Medium (DMEM) supplemented with 10% fetal bovine serum, 100 U/ml penicillin and 100 μg/ml streptomycin. For the purposes of the screening assay they were grown to 90% confluency, trypsinized and recovered. The trypsin was neutralised with cell culture media and cells were centrifuged at 150×g for 5 minutes before discarding the supernatant and resuspending cell pellet in assay media (DMEM supplemented with 2% fetal bovine serum and 100 U/ml penicillin and 100 μg/ml streptomycin). The cells were seeded into 96-well white clear-bottomed cell culture plates at a density of 1.0×10^4 cells/well in 50 μl. For the media/background control column assay media only was added. Cell plates were placed in a humid chamber and incubated overnight at 37° C./5% CO2. After overnight incubation cells were checked for confluency and healthy appearance.
Test compounds were prepared at a final concentration of 10 μM in a maximum DMSO concentration of 1% (final assay concentration maximal 0.1% DMSO) and added to the cell plates in volumes of 10 μl. For cell control and virus control wells the test article solvent only was added. As a positive inhibition control, 7-Deaza-2′-C-methyladenosine was added at 100 μM in 3 wells. Virus (DENV-2 strain 16681) or assay media for cytotoxicity test wells and media/cell control wells was added immediately after test articles at an MOI of 0.5, 40 for 96 well plates respectively. Virus suspension was prepared by thawing DENV-2 frozen stocks and diluting to the required concentration of plaque forming units in assay media.
as §1, with “5 days” for “72 h”, “20” for “20/40”, “96-well” for “384/96 well”, “temperature” for “temperature, protected from light on a plate rocker”, “5” for “20”, “(Envision, PerkinElmer).” for “(Biotek Synergy HTX).”
DENV-2 inhibition was calculated as percentage of cytopathic effect inhibition relative to the virus control and cytotoxicity as percentage of cell survival relative to cell control wells.

| Structure (SMILES) | EC50 [1] | inhibition at 10 µM [2] |
| --- | --- | --- |
| c1ccc(COc2ccc(Nc3cccc(OC4COC4)c3)c(C3CC3)c2)nc1 [Compound 151, 2-cyclopropyl-N-[3-(oxetan-3-yloxy)phenyl]-4-[(pyridin-2-yl)methoxy]aniline] | 0.671 µM | 63% |
| CC(C)CCNC(=O)c1cccc(Nc2ccc(OCc3ccccn3)cc2C2CC2)c1 [Compound 61, 3-((2-cyclopropyl-4-(pyridin-2-ylmethoxy)phenyl)amino)-N-isopentylbenzamide] | 0.054 µM | 55% |
| O=C(NCC1CCCC1)c1cccc(Nc2ccc(OCc3ccccn3)cc2)c1 [Compound 62, N-(cyclopentylmethyl)-3-((4-(pyridin-2-ylmethoxy)phenyl)amino)benzamide] | – | 55% |
| Cc1cc(OCc2ccc(F)cc2)ccc1Nc1cccc(NC(=O)CCC2CCCCC2)c1 [Compound 140, 3-cyclohexyl-N-[3-({4-[(4-fluorophenyl)methoxy]-2-methylphenyl}amino)phenyl]propanamide] | 0.349 µM | 74% |
| CC(C)c1cc(OCc2ccccc2)ccc1Nc1cccc(OCCCC2CCCCC2)c1 [Compound 119, 4-(benzyloxy)-N-[3-(3-cyclohexylpropoxy)phenyl]-2-(propan-2-yl)aniline] | 0.107 µM | 104% |
| O=C(NCCC(F)(F)F)c1cccc(Nc2ccc(OCc3ccccn3)cc2)c1 [Compound 65, 3-((4-(pyridin-2-ylmethoxy)phenyl)amino)-N-(3,3,3-trifluoropropyl)benzamide] | – | 77% |
| Cc1cc(OCc2ccccc2)ccc1Nc1cccc(NC(=O)CCC2CCCCC2)c1 [Compound 132, N-(3-{[4-(benzyloxy)-2-methylphenyl]amino}phenyl)-3-cyclohexylpropanamide] | 0.228 µM | 71% |
| CN(c1cccc(OCCCC2CCCCC2)c1)c1ccc(OCc2ccccn2)cc1C1CC1 [Compound 156, N-[3-(3-cyclohexylpropoxy)phenyl]-2-cyclopropyl-N-methyl-4-[(pyridin-2-yl)methoxy]aniline] | 1.06 µM | 82% |
| O=C(CCC1CCCCC1)Nc1cccc(Nc2ccc(OCc3ccc(C(F)(F)F)cc3)cc2C2CC2)c1 [Compound 169, 3-cyclohexyl-N-{3-[(2-cyclopropyl-4-{[4-(trifluoromethyl)phenyl]methoxy}phenyl)amino]phenyl}propanamide] | – | 59% |
| Cc1cc(OCc2cncnc2)ccc1Nc1cccc(OCCCC2CCCCC2)c1 [Compound 176, N-[3-(3-cyclohexylpropoxy)phenyl]-2-methyl-4-[(pyrimidin-5-yl)methoxy]aniline] | – | 85% |
| Cc1cc(OCc2ccccc2)ccc1Nc1cccc(OCC2CCCC2)c1 [Compound 175, 4-(benzyloxy)-N-[3-(cyclopentylmethoxy)phenyl]-2-methylaniline] | – | 60% |
| Cc1cc(OCc2ccccc2)ccc1Nc1cccc(OCC(=O)O)c1 [Compound 192, 2-(3-{[4-(benzyloxy)-2-methylphenyl]amino}phenoxy)acetic acid] | – | 66% |
| O=C(CCC1CCCCC1)Nc1cccc(Nc2ccc(OCc3ccccc3)cc2C(F)(F)F)c1 [Compound 98, N-(3-{[4-(benzyloxy)-2-(trifluoromethyl)phenyl]amino}phenyl)-3-cyclohexylpropanamide] | 0.012 µM | 60% |
| O=C(NCCC1CCCC1)c1cccc(Nc2ccc(OCc3ccccc3)cc2C2CC2)c1 [Compound 82, N-(2-(cyclopentyl)ethyl)-3-((2-cyclopropyl-4-(phenylmethoxy)phenyl)amino)benzamide] | 0.004 µM | 64% |
| Cc1cc(OCc2ccc(F)cc2)ccc1Nc1ccc(F)c(NC(=O)CCC2CCCCC2)c1 [Compound 121, 3-cyclohexyl-N-[2-fluoro-5-({4-[(4-fluorophenyl)methoxy]-2-methylphenyl}amino)phenyl]propanamide] | 0.116 µM | 59% |
| c1ccc(COc2ccc(Nc3cccc(-c4cnco4)c3)c(C3CC3)c2)nc1 [Compound 179, 2-cyclopropyl-N-[3-(1,3-oxazol-5-yl)phenyl]-4-[(pyridin-2-yl)methoxy]aniline] | 0.721 µM | – |
| O=C(CCC1CCCCC1)Nc1cccc(Nc2ccc(OCc3ccccc3)cc2F)c1 [Compound 150, N-(3-{[4-(benzyloxy)-2-fluorophenyl]amino}phenyl)-3-cyclohexylpropanamide] | 0.597 µM | 78% |
| O=P(O)(O)Oc1cccc(Nc2ccc(OCc3ccccn3)cc2C2CC2)c1 [Compound 133, [3-({2-cyclopropyl-4-[(pyridin-2-yl)methoxy]phenyl}amino)phenoxy]phosphonic acid] | 0.23 µM | – |
| c1ccc(COc2ccc(Nc3cccc(OCCCC4CCCCC4)c3)c(C3CC3)c2)nc1 [Compound 83, 3-(3-cyclohexylpropoxy)-N-(2-cyclopropyl-4-(pyridin-2-ylmethoxy)phenyl)aniline] | 0.009 µM | – |
| Cc1cc(OCc2ccccn2)ccc1Nc1cccc(C(=O)NCCCC(C)C)c1 [Compound 72, 3-((2-methyl-4-(pyridin-2-ylmethoxy)phenyl)amino)-N-(4-methylpentyl)benzamide] | 0.158 µM | – |
